Results published in PMC7866087, “Evaluation of Computationally Designed Peptides against TWEAK, a Cytokine of the Tumour Necrosis Factor Ligand Family” (International Journal of Molecular Sciences, 2021).
Values joined by “and” are separate entries in the source; they are usually repeats but may differ in a detail not shown here. Equal values may be shown once.

System: TWEAK-Fn14 signalling pathway, BRV5 cells
Assay: Cell-based screening of individual peptides, gene expression microarray in TWEAK-stimulated BRV5 cells
Set-up: species or system human
Conditions: 6 h; for regulation of probe genes by individual peptides: BRV5 + TWEAK 25 ng/mL, peptides 450 µM; for BIRC2 mRNA expression (normalized to NARS2) / HSP90B1 mRNA expression (normalized to NARS2) / IL6 mRNA expression (normalized to NARS2) / JUN mRNA expression (normalized to NARS2) / MAP4K4 mRNA expression (normalized to NARS2) / MAPK14 mRNA expression (normalized to NARS2) / NFKB2 mRNA expression (normalized to NARS2) / TNFRSF12A mRNA expression (normalized to NARS2) / TRAF2 mRNA expression (normalized to NARS2) / BIRC2 expression Z-Score / HSP90B1 expression Z-Score / IL6 expression Z-Score / JUN expression Z-Score / MAP4K4 expression Z-Score / MAPK14 expression Z-Score / NFKB2 expression Z-Score / TNFRSF12A expression Z-Score / TRAF2 expression Z-Score: individual peptides, BRV5 + TWEAK; for BIRC2 mRNA expression (normalized to NARS2) / HSP90B1 mRNA expression (normalized to NARS2) / IL6 mRNA expression (normalized to NARS2) / JUN mRNA expression (normalized to NARS2) / MAP4K4 mRNA expression (normalized to NARS2) / MAPK14 mRNA expression (normalized to NARS2) / NFKB2 mRNA expression (normalized to NARS2) / TNFRSF12A mRNA expression (normalized to NARS2) / TRAF2 mRNA expression (normalized to NARS2): 450 µM; for BIRC2 expression Z-Score / HSP90B1 expression Z-Score / IL6 expression Z-Score / JUN expression Z-Score / MAP4K4 expression Z-Score / MAPK14 expression Z-Score / NFKB2 expression Z-Score / TNFRSF12A expression Z-Score / TRAF2 expression Z-Score: normalized to NARS2
Description: Pool 1 and 5 were therefore deconstructed to assess the effect of individual peptides and their activity on same cell-based screening. Pools 1 and 5 were composed of peptides 45, 46, 42, 3, 49, 11, and 13; and of peptides 1, 9, 30, 35, 41, 43, 7, and 14, respectively. As before, and shown in Figure 4B, the level of expression of probe genes on TWEAK-stimulated (T) BRV5 cells is overall higher than on non-stimulated (NT) one. […] The structural model of peptides 43, 30, 35 and 49 bound to TWEAK can be seen in Figure 5 and Supplementary Materials Figures S4–S6, respectively.
Three different cell lines were used in this study: BRV5, MDA-MB 435 (435-P), and HT29. The BRV5 is a highly metastatic brain cell line, obtained in one of our laboratories by primary culture from a brain of a nude mouse inoculated with human 435-Br1 brain metastatic cells, as previously described and used as a model to test the peptides in cell cultures. […] The triple negative 435-P cell line is a useful human breast cancer model that expresses both epithelial and melanocytic markers, and was included as the parental cell from which 435-Br1 metastatic variant was initially originated (both cell lines kindly provided by Dr Fabra at IDIBELL Institute, Hospitalet de Llobregat, Spain). Finally, HT29 human colon carcinoma cells obtained from the European Type Culture Collection (ECACC 91072201) were used as a positive control of TWEAK dependent Fn14 over-expressing cells to evaluate TWEAK-Fn14 axis of brain metastatic variants.
Appropriate cell culture conditions were established as the controls needed in the expression of genes with and without peptides and with and without TWEAK activation, both as pools and individually (see Supplementary Materials Figure S2). The protocol started with the seeding of 125,000 cells/well in 500 µL of culture media supplemented with 10% fetal bovine serum (CM+FBS10%) in 24-well dishes for 24 h before removing FBS (CM-FBS). After overnight starvation in CM-FBS culture, different peptide treatment conditions (at final concentration of 450 µM) were established in the presence or absence of TWEAK (25 ng/mL final concentration) (Peprotech EC, Ltd., London, UK). Some cells were treated with peptides at a single, unique, initial dose (time 0) while other were treated with repeated doses to account for the effect cell-culture degradation. These include a repeated treatment every hour (i.e., […]), every two hours (time 0, 2, and 4) and every three hours (time 0 and 3)—see Supplementary Materials Figure S2 for diagrammatic depiction. At time 6 (after six hours) cells were lysed and RNA extracted for transcriptomic analyses (see next). Cell were culture for six hours as this was the time needed to achieve the highest upregulation of the TWEAK-Fn14 axis upon TWEAK treatment as shown in previous time-course RT-PCR experiments (see Figure 2).
RNA from cells was extracted 6 h after treatments by direct lysis on the well. The RNeasy Micro kit (Qiagen, Hilden, Germany) was used to isolate total RNA from cell lysate following manufacturer’s protocols including an additional step of digestion with DNase I (Qiagen, Hilden, Germany). Total RNA concentration was measured in a NanoDrop 1000 spectrophotometer (Thermo Scientific, Waltham, MA, USA). The RNA extracted from treated and untreated cells (see above) was used as a proxy for gene expression.
The quantitative RT-PCR was performed using Fluidigm Dynamic Array FlexSix array with the specific primers for gene expression (Delta Genes Assays, Wet lab tested on Dynamic Array IFC) designed to RefSeq for detection by pPCR EvaGreen assay (Dynamic Array FlexSix, Fluidigm Corporation). Each Flex Six IFC has a total of six independent partitions. Each partition has a 12 × 12 format (12 assay inlets and 12 sample inlets) and will be run independently as a separate experimental run. […]

Substance	BIRC2 mRNA expression (normalized to NARS2) (mean of replicate columns)	HSP90B1 mRNA expression (normalized to NARS2) (mean of replicate columns)	IL6 mRNA expression (normalized to NARS2) (mean of replicate columns)	JUN mRNA expression (normalized to NARS2) (mean of replicate columns)	MAP4K4 mRNA expression (normalized to NARS2) (mean of replicate columns)	MAPK14 mRNA expression (normalized to NARS2) (mean of replicate columns)	NFKB2 mRNA expression (normalized to NARS2) (mean of replicate columns)	TNFRSF12A mRNA expression (normalized to NARS2) (mean of replicate columns)	TRAF2 mRNA expression (normalized to NARS2) (mean of replicate columns)	BIRC2 mRNA expression (normalized to NARS2) (replicate column 1)	HSP90B1 mRNA expression (normalized to NARS2) (replicate column 1)	IL6 mRNA expression (normalized to NARS2) (replicate column 1)	JUN mRNA expression (normalized to NARS2) (replicate column 1)	MAP4K4 mRNA expression (normalized to NARS2) (replicate column 1)	MAPK14 mRNA expression (normalized to NARS2) (replicate column 1)	NFKB2 mRNA expression (normalized to NARS2) (replicate column 1)	TNFRSF12A mRNA expression (normalized to NARS2) (replicate column 1)	TRAF2 mRNA expression (normalized to NARS2) (replicate column 1)	BIRC2 mRNA expression (normalized to NARS2) (replicate column 2)	HSP90B1 mRNA expression (normalized to NARS2) (replicate column 2)	other results
11: SGVAYQETT [Peptide 11]	0.6438	2.54	0.001558	0.1006	0.1986	0.2184	0.047	0.01869	0.01037	0.6157	2.376	0.001178	0.09818	0.2001	0.2179	0.04834	0.01871	0.01036	0.6719	2.704	regulation of probe genes by individual peptides: induced a higher level of expression of the gene; IL6 mRNA expression (normalized to NARS2) (replicate column 2): 0.001938; JUN mRNA expression (normalized to NARS2) (replicate column 2): 0.1029; MAP4K4 mRNA expression (normalized to NARS2) (replicate column 2): 0.1972; MAPK14 mRNA expression (normalized to NARS2) (replicate column 2): 0.219; NFKB2 mRNA expression (normalized to NARS2) (replicate column 2): 0.04567; TNFRSF12A mRNA expression (normalized to NARS2) (replicate column 2): 0.01867; TRAF2 mRNA expression (normalized to NARS2) (replicate column 2): 0.01038; BIRC2 expression Z-Score (listed as P11): 0.5906; HSP90B1 expression Z-Score (listed as P11): 0.5337; IL6 expression Z-Score (listed as P11): -0.2862; JUN expression Z-Score (listed as P11): 0.0366 and 0.03662; MAP4K4 expression Z-Score (listed as P11): 0.3403; MAPK14 expression Z-Score (listed as P11): 0.3151; NFKB2 expression Z-Score (listed as P11): 0.622; TNFRSF12A expression Z-Score (listed as P11): -0.2085; TRAF2 expression Z-Score (listed as P11): -0.4411
13: YSGYFGGFY [Peptide 13]	0.4307	2.183	0.005226	0.4257	0.2531	0.2388	0.05228	0.02853	0.02474	0.4177	2.2352	0.005457	0.419	0.2593	0.2431	0.05087	0.02856	0.02503	0.4436	2.131	regulation of probe genes by individual peptides: to some extent, 13 induced a higher level of expression of the gene; IL6 mRNA expression (normalized to NARS2) (replicate column 2): 0.004995; JUN mRNA expression (normalized to NARS2) (replicate column 2): 0.4325; MAP4K4 mRNA expression (normalized to NARS2) (replicate column 2): 0.2468; MAPK14 mRNA expression (normalized to NARS2) (replicate column 2): 0.2344; NFKB2 mRNA expression (normalized to NARS2) (replicate column 2): 0.05368; TNFRSF12A mRNA expression (normalized to NARS2) (replicate column 2): 0.0285; TRAF2 mRNA expression (normalized to NARS2) (replicate column 2): 0.02446; BIRC2 expression Z-Score (listed as P13): -0.8852; HSP90B1 expression Z-Score (listed as P13): -0.101; IL6 expression Z-Score (listed as P13): 2.8881 and 2.888; JUN expression Z-Score (listed as P13): 3.7769 and 3.777; MAP4K4 expression Z-Score (listed as P13): 1.699; MAPK14 expression Z-Score (listed as P13): 0.6701; NFKB2 expression Z-Score (listed as P13): 1.124; TNFRSF12A expression Z-Score (listed as P13): 0.91; TRAF2 expression Z-Score (listed as P13): 0.255
46: TGYAENV [Peptide 46]	0.5415	2.314	0.00187	0.08801	0.2105	0.2302	0.05417	0.01829	0.01616	0.5372	2.32	0.00168	0.08305	0.1965	0.2456	0.05593	0.0189	0.01641	0.5458	2.3087	IL6 mRNA expression (normalized to NARS2) (replicate column 2): 0.002059; JUN mRNA expression (normalized to NARS2) (replicate column 2): 0.09296; MAP4K4 mRNA expression (normalized to NARS2) (replicate column 2): 0.2245; MAPK14 mRNA expression (normalized to NARS2) (replicate column 2): 0.2147; NFKB2 mRNA expression (normalized to NARS2) (replicate column 2): 0.05241; TNFRSF12A mRNA expression (normalized to NARS2) (replicate column 2): 0.01767; TRAF2 mRNA expression (normalized to NARS2) (replicate column 2): 0.01592; BIRC2 expression Z-Score (listed as P46): -0.118; HSP90B1 expression Z-Score (listed as P46): 0.1322; IL6 expression Z-Score (listed as P46): -0.0166 and -0.01658; JUN expression Z-Score (listed as P46): -0.1078; MAP4K4 expression Z-Score (listed as P46): 0.6365; MAPK14 expression Z-Score (listed as P46): 0.5199; NFKB2 expression Z-Score (listed as P46): 1.3042 and 1.304; TNFRSF12A expression Z-Score (listed as P46): -0.2543; TRAF2 expression Z-Score (listed as P46): -0.1604
